We go through 18 compounds from patent US10660877B2 (BRISTOL-MYERS SQUIBB COMPANY, priority 2016, dated 2020).

Like-named read-outs stand apart in the source and are kept apart here. Bounds are passed on as bounds.

In one test the target is human TLR8 (Homo sapiens (Human), UniProt Q9NR97). As to the kind of experiment: TLR8 inhibition reporter assay (HEK-Blue cells, SEAP reporter, R848 stimulation).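 Further: compounds tested from 0.05 nM to 50 µM, 22 h at 37 °C, SEAP measured with HEK-Blue Detection, inhibition relative to agonist plus DMSO versus a known inhibitor.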
For the next test, the target named is human TLR7 (Homo sapiens (Human), UniProt Q9NYK1). As to the kind of experiment: TLR7 inhibition reporter assay (HEK-Blue cells, SEAP reporter, gardiquimod stimulation). In kind it is cell-based. To be noted: HEK-Blue cells overexpressing human TLR7, gardiquimod 7.5 μM. In general terms: A reporter such as luciferase makes a cellular process visible.
In another test the target is human TLR9 (Homo sapiens (Human), UniProt Q9NR96). As to the kind of experiment: TLR9 inhibition reporter assay (HEK-Blue cells, SEAP reporter, ODN2006 stimulation).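 Further: compounds tested over 0.05 nM to 50 µM, 22 h incubation, inhibition taken as SEAP signal drop from agonist plus DMSO wells toward a known inhibitor control.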
Where [1] appears, read: read-out: TLR8 IC50, HEK-Blue cells overexpressing human TLR8, R848 15.9 μM.
[2] abbreviates: read-out: TLR9 IC50, HEK-Blue cells overexpressing human TLR9, ODN2006 5 nM.

Chain of human TLR9 (Q9NR96 26-1032): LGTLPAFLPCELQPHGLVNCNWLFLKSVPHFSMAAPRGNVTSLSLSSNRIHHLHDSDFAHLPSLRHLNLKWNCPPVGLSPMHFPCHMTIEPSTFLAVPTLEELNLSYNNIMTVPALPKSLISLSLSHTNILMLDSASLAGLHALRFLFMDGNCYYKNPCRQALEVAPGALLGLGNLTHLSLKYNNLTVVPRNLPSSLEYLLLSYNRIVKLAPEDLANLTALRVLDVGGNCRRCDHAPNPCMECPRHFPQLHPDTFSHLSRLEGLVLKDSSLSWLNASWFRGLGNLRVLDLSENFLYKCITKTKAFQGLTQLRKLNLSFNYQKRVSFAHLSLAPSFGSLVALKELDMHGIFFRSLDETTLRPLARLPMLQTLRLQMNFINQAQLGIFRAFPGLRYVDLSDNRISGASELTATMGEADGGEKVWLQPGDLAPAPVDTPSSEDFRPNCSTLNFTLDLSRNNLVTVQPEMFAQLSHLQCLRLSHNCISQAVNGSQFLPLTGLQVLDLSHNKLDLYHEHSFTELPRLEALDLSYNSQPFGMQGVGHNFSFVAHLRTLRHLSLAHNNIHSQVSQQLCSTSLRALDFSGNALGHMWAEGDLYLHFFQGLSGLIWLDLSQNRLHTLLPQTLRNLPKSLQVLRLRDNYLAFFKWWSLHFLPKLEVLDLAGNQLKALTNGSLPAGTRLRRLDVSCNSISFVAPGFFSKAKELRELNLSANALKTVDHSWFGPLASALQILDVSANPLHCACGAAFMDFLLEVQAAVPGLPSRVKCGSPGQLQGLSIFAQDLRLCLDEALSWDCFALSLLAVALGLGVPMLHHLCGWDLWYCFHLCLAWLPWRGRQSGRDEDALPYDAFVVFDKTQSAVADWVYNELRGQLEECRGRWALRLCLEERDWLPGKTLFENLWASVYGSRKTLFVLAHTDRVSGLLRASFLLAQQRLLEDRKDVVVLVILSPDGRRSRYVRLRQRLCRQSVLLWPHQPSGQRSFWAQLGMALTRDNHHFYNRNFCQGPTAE
Chain of human TLR7 (Q9NYK1 27-1049): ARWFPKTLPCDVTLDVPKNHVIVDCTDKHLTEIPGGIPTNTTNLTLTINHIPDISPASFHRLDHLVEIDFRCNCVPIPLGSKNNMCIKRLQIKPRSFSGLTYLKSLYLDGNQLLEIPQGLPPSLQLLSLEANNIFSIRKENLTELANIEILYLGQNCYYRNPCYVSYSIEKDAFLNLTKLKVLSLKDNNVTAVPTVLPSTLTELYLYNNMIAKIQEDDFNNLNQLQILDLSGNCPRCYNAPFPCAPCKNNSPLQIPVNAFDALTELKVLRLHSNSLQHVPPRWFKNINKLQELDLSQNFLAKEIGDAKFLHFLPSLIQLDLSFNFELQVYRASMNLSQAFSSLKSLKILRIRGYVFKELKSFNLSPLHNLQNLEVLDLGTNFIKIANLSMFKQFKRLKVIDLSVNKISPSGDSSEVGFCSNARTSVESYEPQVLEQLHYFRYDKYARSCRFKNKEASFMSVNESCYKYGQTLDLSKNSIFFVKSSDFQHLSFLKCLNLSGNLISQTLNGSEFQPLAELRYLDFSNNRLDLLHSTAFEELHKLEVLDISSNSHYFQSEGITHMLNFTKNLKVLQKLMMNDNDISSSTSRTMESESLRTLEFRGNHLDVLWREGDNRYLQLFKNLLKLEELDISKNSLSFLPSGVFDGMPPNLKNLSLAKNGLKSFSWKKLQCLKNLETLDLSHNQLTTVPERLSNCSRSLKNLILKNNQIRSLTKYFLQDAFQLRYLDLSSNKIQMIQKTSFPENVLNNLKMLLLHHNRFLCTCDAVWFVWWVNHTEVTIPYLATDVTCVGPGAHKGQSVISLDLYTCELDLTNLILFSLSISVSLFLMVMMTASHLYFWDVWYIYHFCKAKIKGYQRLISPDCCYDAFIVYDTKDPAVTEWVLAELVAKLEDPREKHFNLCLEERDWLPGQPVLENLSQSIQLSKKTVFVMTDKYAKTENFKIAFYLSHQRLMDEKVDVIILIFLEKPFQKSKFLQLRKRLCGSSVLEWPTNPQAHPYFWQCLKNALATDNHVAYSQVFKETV
Chain of human TLR8 (Q9NR97 27-1041): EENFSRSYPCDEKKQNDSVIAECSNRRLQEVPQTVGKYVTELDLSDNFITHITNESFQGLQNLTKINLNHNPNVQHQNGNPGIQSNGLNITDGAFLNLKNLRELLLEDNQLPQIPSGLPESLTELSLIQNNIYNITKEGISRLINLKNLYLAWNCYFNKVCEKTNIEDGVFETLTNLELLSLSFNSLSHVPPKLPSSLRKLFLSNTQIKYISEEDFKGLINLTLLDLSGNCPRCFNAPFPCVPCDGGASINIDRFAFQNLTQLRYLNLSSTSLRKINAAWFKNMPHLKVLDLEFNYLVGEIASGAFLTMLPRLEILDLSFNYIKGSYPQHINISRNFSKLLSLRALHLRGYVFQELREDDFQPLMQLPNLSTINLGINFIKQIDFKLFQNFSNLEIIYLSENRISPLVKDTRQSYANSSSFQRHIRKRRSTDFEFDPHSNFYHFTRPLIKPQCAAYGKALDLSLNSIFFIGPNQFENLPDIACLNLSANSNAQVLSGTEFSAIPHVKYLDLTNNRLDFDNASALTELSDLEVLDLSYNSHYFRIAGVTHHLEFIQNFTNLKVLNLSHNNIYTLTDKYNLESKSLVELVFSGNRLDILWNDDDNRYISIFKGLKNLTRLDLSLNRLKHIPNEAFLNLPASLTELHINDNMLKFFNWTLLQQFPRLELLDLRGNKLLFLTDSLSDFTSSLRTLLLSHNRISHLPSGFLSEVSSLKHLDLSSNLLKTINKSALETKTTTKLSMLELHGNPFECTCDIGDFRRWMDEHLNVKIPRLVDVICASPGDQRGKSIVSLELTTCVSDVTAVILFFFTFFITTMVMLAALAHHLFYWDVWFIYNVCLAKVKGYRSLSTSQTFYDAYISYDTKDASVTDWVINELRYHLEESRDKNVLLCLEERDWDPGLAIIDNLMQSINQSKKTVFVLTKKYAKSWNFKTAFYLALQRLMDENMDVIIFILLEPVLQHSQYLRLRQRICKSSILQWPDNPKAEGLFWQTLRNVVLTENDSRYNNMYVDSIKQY

For `Cc1cc(-c2[nH]c3ccc(C4CCN(Cc5nnc(C6CC6)o5)CC4)cc3c2C(C)C)c(F)cn1` [Example 698, 2-cyclopropyl-5-((4-(2-(5-fluoro-2-methylpyridin-4-yl)-3-isopropyl-1H-indol-5-yl)piperidin-1-yl)methyl)-1,3,4-oxadiazole], the IC50 (in general, the concentration at which inhibition is half-maximal) came to 37.6 nM on human TLR8 (setting [1]), 54.2 nM at human TLR7 and 12400 nM at human TLR9 (setting [2]).
On the same counts, the results for `Cc1cc(-c2[nH]c3ccc(C4CCN(C(=O)CCN(C)C5COC5)CC4)cc3c2C(C)C)cc(C)n1` [Example 589, 1-(4-(2-(2,6-dimethylpyridin-4-yl)-3-isopropyl-1H-indol-5-yl)piperidin-1-yl)-3-(methyl(oxetan-3-yl)amino)propan-1-one] are 27.6 nM, 4.7 nM and 2110 nM.
On the same counts, the results for `Cc1cc(-c2[nH]c3ccc(C4CCN(C(=O)CNC5(C)CCC5)CC4)cc3c2C(C)C)cc(C)n1` [Example 353, 1-(4-(2-(2,6-dimethylpyridin-4-yl)-3-isopropyl-1H-indol-5-yl)piperidin-1-yl)-2-((1-methylcyclobutyl)amino)ethan-1-one] are 9.5 nM, 4 nM and 429 nM.
For `CCc1c(-c2ccnc(OC)c2)[nH]c2ccc(C3CCN(C4CCN(C)CC4)CC3)cc12` [Example 790, 3-ethyl-2-(2-methoxypyridin-4-yl)-5-(1′-methyl-[1,4′-bipiperidin]-4-yl)-1H-indole], the IC50 at human TLR8 (setting [1]) is 1410 nM; at human TLR7, 1700 nM; on human TLR9 (setting [2]), 1780 nM.
On the same counts, the results for `Cc1cc(-c2[nH]c3ccc(C4CCN(C(=O)CNC5CCC5)CC4)cc3c2C(C)C)cc(C)n1` [Example 334, 2-(cyclobutylamino)-1-(4-(2-(2,6-dimethylpyridin-4-yl)-3-isopropyl-1H-indol-5-yl)piperidin-1-yl)ethan-1-one] are 7.6 nM, 2.3 nM and 474 nM.
With `Cc1cc(-c2[nH]c3ccc(C4CCN(C(C)C)CC4)cc3c2C(C)C)c(C)cn1` [Example 641, 2-(2,5-dimethylpyridin-4-yl)-3-isopropyl-5-(1-isopropylpiperidin-4-yl)-1H-indole], the IC50 on human TLR8 (setting [1]) was found to be 9.7 nM; at human TLR7, 33 nM; at human TLR9 (setting [2]) it was 2670 nM.
In the case of `Cc1cc(-c2[nH]c3ccc(C4CCN(C(=O)C5CC(=O)N(C)C5)CC4)cc3c2C(C)C)ccn1` (stereo not drawn) [Example 619, 4-(4-(3-isopropyl-2-(2-methylpyridin-4-yl)-1H-indol-5-yl)piperidine-1-carbonyl)-1-methylpyrrolidin-2-one], the IC50 at human TLR8 (setting [1]) was 67.9 nM; against human TLR7, 51.1 nM; on human TLR9 (setting [2]), over 50000 nM.
In the case of `CCN(CCO)CC(=O)N1CCC(c2ccc3[nH]c(-c4cc(C)nc(C)c4)c(C(C)C)c3c2)CC1` [Example 397, 1-(4-(2-(2,6-dimethylpyridin-4-yl)-3-isopropyl-1H-indol-5-yl)piperidin-1-yl)-2-(ethyl(2-hydroxyethyl)amino)ethan-1-one], the IC50 came to 18.6 nM at human TLR8 (setting [1]), 2.2 nM against human TLR7 and 705 nM on human TLR9 (setting [2]).
On the same counts, the results for `Cc1cc(-c2[nH]c3ccc(C4CCN(C(=O)CN(C)C)CC4)cc3c2C(C)C)c(C)cn1` [Example 585, 2-(dimethylamino)-1-(4-(2-(2,5-dimethylpyridin-4-yl)-3-isopropyl-1H-indol-5-yl)piperidin-1-yl)ethan-1-one] are 5.2 nM, 10.8 nM and 1670 nM.
On the same counts, the results for `CCc1c(-c2ccnc(C)c2)[nH]c2ccc(C3CCN(CC4CCN(C(C)C)CC4)CC3)cc12` [Example 675, 3-ethyl-5-(1-((1-isopropylpiperidin-4-yl)methyl)piperidin-4-yl)-2-(2-methylpyridin-4-yl)-1H-indole] are 11.9 nM, 44.7 nM and 42 nM.
Turning to `Cc1cc(-c2[nH]c3ccc(C4CCN(Cc5ncn(C)n5)CC4)cc3c2C(C)C)cc(C)n1` [Example 451, 2-(2,6-dimethylpyridin-4-yl)-3-isopropyl-5-(1-((1-methyl-1H-1,2,4-triazol-3-yl)methyl)piperidin-4-yl)-1H-indole], the IC50 on human TLR8 (setting [1]) came out at 12.2 nM; on human TLR7, 5.9 nM; on human TLR9 (setting [2]), 1560 nM.
On the same counts, the results for `Cc1cc(-c2[nH]c3ccc(C4CCN(C(=O)CN5CCOC5=O)CC4)cc3c2C(C)C)cc(C)n1` [Example 164, 3-(2-(4-(2-(2,6-dimethylpyridin-4-yl)-3-isopropyl-1H-indol-5-yl)piperidin-1-yl)-2-oxoethyl) oxazolidin-2-one] are 39.7 nM, 4.6 nM and 14200 nM.
On to `Cc1cc(-c2[nH]c3ccc(C4CCN(S(=O)(=O)Cc5ccccc5)CC4)cc3c2C(C)C)ccn1` [Example 556, 5-(1-(benzylsulfonyl)piperidin-4-yl)-3-isopropyl-2-(2-methylpyridin-4-yl)-1H-indole], for which the IC50 on human TLR8 (setting [1]) was 731 nM; against human TLR7 it was 220 nM; at human TLR9 (setting [2]) it was over 50000 nM.
On to `CCC(C)CN(CCO)CC(=O)N1CCC(c2ccc3[nH]c(-c4cc(C)nc(C)c4)c(C(C)C)c3c2)CC1` (stereo not drawn) [Example 406, 1-(4-(2-(2,6-dimethylpyridin-4-yl)-3-isopropyl-1H-indol-5-yl)piperidin-1-yl)-2-((2-hydroxyethyl)(2-methylbutyl)amino)ethan-1-one], for which the IC50 turned out to be 73.8 nM on human TLR8 (setting [1]), 7.8 nM on human TLR7 and 1070 nM at human TLR9 (setting [2]).
Regarding `Cc1cc(-c2[nH]c3ccc(C4CCN(C(=O)C5CCN(C)CC5)CC4)cc3c2C(C)C)cc(C)n1` [Example 110, (4-(2-(2,6-dimethylpyridin-4-yl)-3-isopropyl-1H-indol-5-yl)piperidin-1-yl)(1-methylpiperidin-4-yl)methanone], the IC50 on human TLR8 (TLR8 IC50, HEK-Blue cells overexpressing human TLR8, R848 15.9 μM) was 8.1 nM; on human TLR7 it was 3.9 nM; against human TLR9 (TLR9 IC50, HEK-Blue cells overexpressing human TLR9, ODN2006 5 nM), 385 nM.
As to `Cc1cc(-c2[nH]c3ccc(C4CCN(C(=O)CN(C)CCO)CC4)cc3c2C(C)C)c(F)cn1` [Example 680, 1-(4-(2-(5-fluoro-2-methylpyridin-4-yl)-3-isopropyl-1H-indol-5-yl)piperidin-1-yl)-2-((2-hydroxyethyl)(methyl)amino)ethan-1-one], the values for the IC50 on human TLR8 (setting [1]), against human TLR7 and at human TLR9 (setting [2]) were 4 nM, 2 nM and 2970 nM, respectively.
On the same counts, the results for `COc1cc(-c2[nH]c3ccc(C4CCN(Cc5c[nH]c(C)n5)CC4)cc3c2C(C)C)ccn1` [Example 520, 3-isopropyl-2-(2-methoxypyridin-4-yl)-5-(1-((2-methyl-1H-imidazol-4-yl)methyl)piperidin-4-yl)-1H-indole] are 27.1 nM, 42.7 nM and 437 nM.
For the compound `Cc1cc(-c2[nH]c3ccc(C4CCN(C(=O)CN5C[C@@H](C(F)(F)F)C[C@H]5CO)CC4)cc3c2C(C)C)cc(C)n1` [Example 394, 1-(4-(2-(2,6-dimethylpyridin-4-yl)-3-isopropyl-1H-indol-5-yl)piperidin-1-yl)-2-((2S,4S)-2-(hydroxymethyl)-4-(trifluoromethyl)pyrrolidin-1-yl)ethan-1-one], the IC50 on human TLR8 (setting [1]) was determined as 152 nM; against human TLR7, 14.6 nM; at human TLR9 (setting [2]) it was 833 nM.
